From patent publication US7473700B2, “1,2,4-triazole derivatives, processes for the preparation thereof, and pharmaceutical compositions containing the same” (CJ Corporation, priority 2002, dated 2009)

Key:
COX-2 = target: T1, COX-2 (Mus musculus, UniProt Q05769); assay: Assay for the COX-2 inhibitory activity using RAW 264.7 cell line (PGE2 inhibition); assay type: cell-based; conditions: RAW264.7, 10 nM test compound, RAW 264.7 cells, interferon γ and LPS, 18 hours, read-out: Cyclooxygenase (COX) Inhibition (%) COX-2 (10 nM)
T1 construct: host or cells: RAW 264.7 cells, aspirin-pretreated, then induced with interferon gamma and LPS
T1 sequence (Q05769 18-604): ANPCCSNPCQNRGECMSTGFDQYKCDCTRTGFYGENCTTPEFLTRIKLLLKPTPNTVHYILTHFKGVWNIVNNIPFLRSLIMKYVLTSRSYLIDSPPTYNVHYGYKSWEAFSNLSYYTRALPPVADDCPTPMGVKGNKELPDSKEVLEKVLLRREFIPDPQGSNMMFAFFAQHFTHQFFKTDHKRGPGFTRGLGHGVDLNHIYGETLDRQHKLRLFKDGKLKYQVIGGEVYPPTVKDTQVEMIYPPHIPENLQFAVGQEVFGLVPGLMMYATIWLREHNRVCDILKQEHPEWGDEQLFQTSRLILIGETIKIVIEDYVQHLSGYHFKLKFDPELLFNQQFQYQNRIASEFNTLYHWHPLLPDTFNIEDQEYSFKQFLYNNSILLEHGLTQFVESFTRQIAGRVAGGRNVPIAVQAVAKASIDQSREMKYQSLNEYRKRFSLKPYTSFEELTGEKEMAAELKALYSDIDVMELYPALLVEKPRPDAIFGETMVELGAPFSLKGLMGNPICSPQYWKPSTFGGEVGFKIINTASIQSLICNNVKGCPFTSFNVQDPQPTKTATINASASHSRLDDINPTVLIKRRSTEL
Method: Each well was treated with 250 μM of aspirin and incubated at 37° C. for 2 hours. After the culture media were replaced with new culture media, the new culture media were treated with a test compound (10 nM) and incubated for 30 minutes. Then, each well was treated with interferon γ (100 units/ml) and lipopolysaccharide (LPS, 100 ng/ml) and incubated for 18 hours. The culture media were transferred to other test tubes. The concentration of PGE2 was quantified by means of the EIA kit (Cayman Chemicals).
(§1) The percentages of the COX inhibition were calculated according to the following equation: % Inhibition=(concentration of PGE2 in test compound-untreated sample−concentration of PGE2 in test compound-treated sample)/(concentration of PGE2 in test compound-untreated sample)×100

COX-1 = target: T2, COX-1 (Homo sapiens, UniProt P23219); assay: Assay for the COX-1 inhibitory activity using U-937 (PGE2 inhibition); assay type: cell-based; conditions: 1 μM test compound; U-937 human lymphoma cells; PGE2 after arachidonic acid; read-out: Cyclooxygenase (COX) Inhibition (%) COX-1 (1 μM)
T2 construct: host or cells: U-937 human lymphoma cells
Method: The collected cells were diluted with HBSS (×1, Hank's balanced salt solution) to a concentration of 1×10^6 cells/ml. 1 ml of the dilute cell solution was placed into each well of 12-well plates. 5 μl of 1 μM solution of a test compound in DMSO and 5 μl of DMSO as a control were added to the wells. The wells were incubated in CO2 incubator at 37° C. for 15 minutes. Separately, 10 mM stock solution of arachidonic acid in ethanol was diluted ten times in ethanol to prepare 1 mM solution of arachidonic acid. Arachidonic acid acts as a substrate. 10 μl of the 1 mM solution of arachidonic acid was added to each well and incubated at CO2 incubator at 37° C. for 30 minutes. The cell solution of each well was placed in a centrifuge test tube and centrifuged at 10,000 rpm at 4° C. for 5 minutes. The concentration of PGE2 in the collected cells and the supernatant was quantified by means of a monoclonal kit (Cayman Chemicals). The percentages of PGE2 inhibition in a group of the test compound-treated cells in relation to a group of the DMSO-treated cells were calculated. Based on the calculated values, the COX-1 inhibitory activities were evaluated.
as §1

T2 sequence (P23219 24-599): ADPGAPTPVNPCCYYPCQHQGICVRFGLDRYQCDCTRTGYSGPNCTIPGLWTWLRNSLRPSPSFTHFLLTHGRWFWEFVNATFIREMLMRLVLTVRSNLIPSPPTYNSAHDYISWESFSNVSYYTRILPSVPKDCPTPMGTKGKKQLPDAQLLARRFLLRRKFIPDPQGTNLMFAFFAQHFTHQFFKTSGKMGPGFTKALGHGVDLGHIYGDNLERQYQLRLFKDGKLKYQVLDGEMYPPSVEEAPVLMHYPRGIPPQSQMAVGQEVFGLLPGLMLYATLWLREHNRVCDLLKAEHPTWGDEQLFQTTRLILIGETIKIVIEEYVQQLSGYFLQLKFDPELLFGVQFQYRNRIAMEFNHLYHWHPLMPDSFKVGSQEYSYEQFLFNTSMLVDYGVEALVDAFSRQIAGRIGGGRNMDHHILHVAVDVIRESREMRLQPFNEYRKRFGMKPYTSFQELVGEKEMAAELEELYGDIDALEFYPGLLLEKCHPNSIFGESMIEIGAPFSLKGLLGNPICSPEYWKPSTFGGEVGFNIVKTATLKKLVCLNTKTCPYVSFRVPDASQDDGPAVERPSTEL

| SMILES | inhibition at 0.01 µM (COX-2) | inhibition at 1 µM (COX-1) |
| --- | --- | --- |
| C#CCSc1nc(-c2ccccc2)n(-c2ccc(S(N)(=O)=O)cc2)n1 [Example 45, 4-(3-prop-2-ynylthio-5-phenyl-1,2,4-triazole-1-yl)-benzenesulfonamide] | 13.3% | 23.4% |
| COc1ccc(-c2nc(OC(C)C)nn2-c2ccc(S(N)(=O)=O)cc2)cc1 [Example 46, 4-[3-isopropoxy-5-(4-methoxyphenyl)-1,2,4-triazole-1-yl]-benzenesulfonamide] | 12.2% | 34.2% |
| CC(C)Oc1nc(-c2ccccc2)n(-c2ccc(S(N)(=O)=O)cc2)n1 [Example 47, 4-(3-isopropoxy-5-phenyl-1,2,4-triazole-1-yl)-benzenesulfonamide] | 10.6% | 25.4% |
| CC(C)Oc1nc(-c2ccc(F)cc2)n(-c2ccc(S(N)(=O)=O)cc2)n1 [Example 48, 4-[3-isopropoxy-5-(4-fluorophenyl)-1,2,4-triazole-1-yl]-benzenesulfonamide] | 9.8% | 26.4% |
| CC(C)Sc1nc(-c2ccccc2)n(-c2ccc(S(N)(=O)=O)cc2)n1 [Example 49, 4-(3-isopropylthio-5-phenyl-1,2,4-triazole-1-yl)-benzenesulfonamide] | 24.5% | 33.1% |
| COc1ccc(-c2nc(OCc3ccccc3)nn2-c2ccc(S(N)(=O)=O)cc2)cc1F [Example 50, 4-[3-benzyloxy-5-(3-fluoro-4-methoxyphenyl)-1,2,4-triazole-1-yl]-benzenesulfonamide] | 16.1% | 28% |
| NS(=O)(=O)c1ccc(-n2nc(OCc3ccccc3)nc2-c2ccccc2)cc1 [Example 51, 4-(3-benzyloxy-5-phenyl-1,2,4-triazole-1-yl)-benzenesulfonamide] | 23.4% | 21.4% |
| C=CCOc1nc(-c2ccc(OC)cc2)n(-c2ccc(S(N)(=O)=O)cc2)n1 [Example 52, 4-[3-allyloxy-5-(4-methoxyphenyl)-1,2,4-triazole-1-yl]-benzenesulfonamide] | 33.1% | 34.3% |
| C=CCOc1nc(-c2ccccc2)n(-c2ccc(S(N)(=O)=O)cc2)n1 [Example 53, 4-(3-allyloxy-5-phenyl-1,2,4-triazole-1-yl)-benzenesulfonamide] | 16.2% | 20.4% |
| C=CCOc1nc(-c2ccc(F)cc2)n(-c2ccc(S(N)(=O)=O)cc2)n1 [Example 54, 4-[3-allyloxy-5-(4-fluorophenyl)-1,2,4-triazole-1-yl]-benzenesulfonamide] | 15.5% | 26.4% |
| COc1ccc(-c2nc(OCC(F)(F)F)nn2-c2ccc(S(N)(=O)=O)cc2)cc1 [Example 55, 4-[3-(2,2,2-trifluoroethoxy)-5-(4-methoxyphenyl)-1,2,4-triazole-1-yl]-benzenesulfonamide] | 16.2% | 33.1% |
| NS(=O)(=O)c1ccc(-n2nc(OCC(F)(F)F)nc2-c2ccc(F)cc2)cc1 [Example 56, 4-[3-(2,2,2-trifluoroethoxy)-5-(4-fluorophenyl)-1,2,4-triazole-1-yl]-benzenesulfonamide] | 27.7% | 37.2% |
| NS(=O)(=O)c1ccc(-n2nc(OCCCl)nc2-c2ccccc2)cc1 [Example 57, 4-[3-(2-chloroethoxy)-5-phenyl-1,2,4-triazole-1-yl]-benzenesulfonamide] | 26.6% | 21.4% |
| NS(=O)(=O)c1ccc(-n2nc(OC3CC3)nc2-c2ccccc2)cc1 [Example 58, 4-[3-cyclopropoxy-5-phenyl-1,2,4-triazole-1-yl]-benzenesulfonamide] | 30.4% | 34.3% |
| COc1ccc(-c2nc(OC)nn2-c2ccc(S(C)(=O)=O)cc2)cc1 [Example 59, 1-(4-methanesulfonylphenyl)-3-methoxy-5-(4-methoxylphenyl)-1H-1,2,4-triazole] | 27.2% | 22.6% |
| COc1nc(-c2ccccc2)n(-c2ccc(S(C)(=O)=O)cc2)n1 [Example 60, 1-(4-methanesulfonylphenyl)-3-methoxy-5-phenyl-1H-1,2,4-triazole] | 23.4% | 23.4% |
| CCOc1nc(-c2ccc(OC)cc2)n(-c2ccc(S(C)(=O)=O)cc2)n1 [Example 61, 1-(4-methanesulfonylphenyl)-3-ethoxy-5-(4-methoxylphenyl)-1H-1,2,4-triazole] | 34.2% | 33.1% |
| CCOc1nc(-c2ccccc2)n(-c2ccc(S(C)(=O)=O)cc2)n1 [Example 62, 1-(4-methanesulfonylphenyl)-3-ethoxy-5-phenyl-1H-1,2,4-triazole] | 25.4% | 26% |
| COc1ccc(-c2nc(OC(C)C)nn2-c2ccc(S(C)(=O)=O)cc2)cc1 [Example 63, 1-(4-methanesulfonylphenyl)-3-isopropoxy-5-(4-methoxyphenyl)-1H-1,2,4-triazole] | 26.4% | 22.6% |
| CC(C)Oc1nc(-c2ccccc2)n(-c2ccc(S(C)(=O)=O)cc2)n1 [Example 64, 1-(4-methanesulfonylphenyl)-3-isopropoxy-5-phenyl-1H-1,2,4-triazole] | 33.1% | 23.4% |
